Results from patent US9228089B2, “Polyester polyamine and polyester polyquaternary ammonium corrosion inhibitors” (AKZO NOBEL CHEMICALS INTERNATIONAL B.V., priority 2010, dated 2016).

Assays:
[1] = example 6 of PCT/EP2010/059325, cited from earlier work
[2] = bubble test, corrosion rate monitored by linear polarization resistance (LPR) in CO2-saturated synthetic Forties brine; conditions: 80 ppm active inhibitor, 54° C.
Method: The tests were carried out using the well-known “bubble test” method, see for instance the discussion in NACE International, Vol. 46, No. 5, pp 46-51 (May 2007), where corrosion rate is monitored by linear polarization resistance (LPR). First a baseline corrosion rate in the medium is established, and then corrosion rates with different amounts of inhibitor added are measured.
The detailed conditions for the tests were as follows: • Temperature 54° C. • CO2 CO2 Saturated at ambient pressure (˜0.9 bara partial pressure) • Liquids 100% Typical “Forties” (North Sea water) synthetic brine as shown below: • Chloride=42539 mg/l • Sulphate=0 mg/l • Barium=173 mg/l • Calcium=1979 mg/l • Strontium=351 mg/l • Magnesium=377 mg/l • Sodium=24973 mg/l • Potassium=341 mg/l • Bicarbonate=200 mg/l • Electrode Fabricated from AISI 1018 (UNS G10180), polished to 600 grit finish, degreased rinsed and dried • Inhibitor Concentration 4 hour precorrosion without inhibitor, then dose with 10 ppm of inhibitor and evaluate corrosion rate for at least 8 h, then add inhibitor so that the next level of total inhibitor dosage is reached according to Table 1. After each addition the corrosion rate is measured for at least 8 h. • Gas and partial pressure Ambient pressure test. […]

C12-C16 Cocoalkyl di-methyl benzyl quaternary amine
% protection at 20 ppm ([1]; 20 ppm): −28%
% protection at 50 ppm ([1]; 50 ppm): 38%
% Protection at 80 ppm [2]: 89.6%
